# Measurements reported in patent US20150240220A1, “NOVEL UDP-GLYCOSYLTRANSFERASE DERIVED FROM GINSENG AND USE THEREOF” (KOREA ADVANCED INSTITUTE OF SCIENCE AND TECHNOLOGY, priority 2012, published 2015).
# Tests used:
# PgUGT74A1 [1] = assay: In vitro glycosyltransferase assay with purified recombinant PgUGT74A1; format: biochemical, Panax ginseng; conditions: ginsenoside 5 mM, UDP-glucose 50 mM, enzyme 30 μg, pH 7, 35° C., 12 hours
# Description: (§1) A glycosyltransferase assay was performed in a reaction buffer (10 mM PBS buffer, pH 7) containing the purified PgUGT74A1 or PgUGT94B1 (30 μg), a ginsenoside compound (5 mM) and UDP-glucose (50 mM). For this assay, 10 different types of ginsenosides including PPD (Protopanaxadiol), PPT (Protopanaxatriol), Compound K (C-K), ginsenoside Rg3, Rh2, F2, Rd, Rg2, Rh1 and F1 were used, and the structures of the ginsenosides are shown in FIG. 1.
# (§2) The reaction mixture was incubated at 35° C. for 12 hours, and then the products were analyzed by thin-layer chromatography (TLC) or high performance liquid chromatography (HPLC).
# (§3) TLC analysis was performed using a mobile phase (acetone:methanol:DDW=65:35:10 vol/vol) and a 60F254 silica gel plate (Merck, Germany). The resolved product on the TLC plate was detected by spraying the plate with 10% (vol/vol) sulfuric acid (H2SO4) and heating it at 110° C. for 5 minutes.
# (§4) HPLC analysis was performed using ODS (2) C18 column (Phenomenex, USA). Water and acetonitrile gradient application time; and a component ratio are as follows: at a flow rate of 1 ml per minute for 0 minute, 68% water and 32% acetonitrile; 8 minutes, 35% water and 65% acetonitrile; 12 minutes, 0% water and 100% acetonitrile; 20 minutes, 0% water and 100% acetonitrile; 20.1 minutes, 68% water and 32% acetonitrile; and 28 minutes, 68% water and 32% acetonitrile.
# (§5) Ginsenosides were detected by using a UV-detector (Younglin, Korea) at a wavelength of 203 nm.
# First, the recombinant PgUGT of Example 1, PgUGT74A1, was incubated with 10 different types of ginsenosides (PPD, C-K, Rh2, F2, Rg3, Rd, Rg2, Rh1, F1 and PPT) in the presence of UDP-glucose, and the products converted by the recombinant PgUGT were analyzed by TLC.
# PgUGT74A1 and PgUGT94B1 = assay: In vitro glycosyltransferase assay with both PgUGT74A1 and PgUGT94B1 in a single reaction tube; format: biochemical, Panax ginseng; conditions: both enzymes in a single reaction tube, in the presence of UDP-Glc
# Description: PPD (upper panel) or C-K (lower panel) was incubated with both of PgUGT74A1 and PgUGT94B1 in the presence of UDP-Glc. Then the reaction mixture was analyzed by HPLC. […] Rg3 and Rd converted by the above two enzymes are marked as black triangles;
# as §1, §2
# HPLC analysis was performed using ODS (2) C18 column (Phenomenex, USA). […]
# Ginsenosides were detected by using a UV-detector (Younglin, Korea) at a wavelength of 203 nm. […]
# PgUGT94B1 [2] = assay: In vitro glycosyltransferase assay with purified recombinant PgUGT94B1; format: biochemical, Panax ginseng; conditions: ginsenoside 5 mM, UDP-glucose 50 mM, enzyme 30 μg, pH 7, 35° C., 12 hours
# Description: as §1, §2, §3, §4, §5
# First, the recombinant PgUGT of Example 1, PgUGT94B1, was incubated with 10 different types of ginsenosides (PPD, C-K, Rh2, F2, Rg3, Rd, Rg2, Rh1, F1 and PPT) in the presence of UDP-glucose, and then the products converted by the recombinant PgUGT were analyzed by TLC.
# PgUGT94B1 [3] = assay: Quantitative RT-PCR of PgUGT94B1 expression in ginseng leaves sprayed with MeJA; format: in vivo, Panax ginseng; conditions: 200 μM MeJA sprayed on leaves of 15-month-old ginseng everyday for 5 days, samples on 6th day; normalized to tubulin
# Description: (§6) Total RNA was isolated from the leaf or root of 15-month-old ginseng using a spectrum plant total RNA kit (Sigma-Aldrich). 200 μM methyl jasmonate (MeJA) was sprayed onto the leaves of ginseng everyday for a total of 5 days, and samples were collected on the 6th day. The 1 μg of total RNA was used for cDNA synthesis.
# (§7) Expression levels of different genes were examined by a quantitative RT-PCR using the primer sets listed in the following Table 2, and the results were normalized to the expression level of tubulin.
# (§8) The 15-month old ginseng grown in a growth chamber under LD conditions was collected, and MeJA was sprayed onto its leaves everyday for a total of 5 days. To analyze expression level of the ginsenoside biosynthetic genes, samples were collected on the 6th days. […] However, expression of PgPPTS was not induced by MeJA under the conditions of the present invention.
# [4] = test system: PgPPDS (protopanaxadiol synthase); assay: Quantitative RT-PCR of PgPPDS expression in ginseng leaves sprayed with MeJA; format: in vivo, Panax ginseng; conditions: 200 μM MeJA sprayed on leaves of 15-month-old ginseng everyday for 5 days, samples on 6th day; normalized to tubulin
# Description: as §6, §7, §8
# ginseng = assay: Concentrations of 4 major ginsenosides after spraying MeJA onto the leaf of ginseng; format: in vivo, Panax ginseng; conditions: MeJA sprayed onto the leaf of ginseng; versus untreated
# Description: as §6
# In this regard, the concentrations of 4 major ginsenosides were measured after spraying MeJA onto the leaf of ginseng. The treatment of MeJA increased the concentrations of two PPD-type ginsenosides, Rd and Rb1, by 1.55 and 1.14 times respectively (FIG. 6c). In addition, the treatment of MeJA increased the concentrations of two PPT-type ginsenosides, Rg1 and Re, by 2.61 and 1.45 times respectively.
# [5] = test system: PgDS (dammarenediol-II synthase); assay: Quantitative RT-PCR of PgDS expression in ginseng leaves sprayed with MeJA; format: in vivo, Panax ginseng; conditions: 200 μM MeJA sprayed on leaves of 15-month-old ginseng everyday for 5 days, samples on 6th day; normalized to tubulin
# Description: as §6, §7, §8
# PgUGT74A1 [6] = assay: Quantitative RT-PCR of PgUGT74A1 expression in ginseng leaves sprayed with MeJA; format: in vivo, Panax ginseng; conditions: 200 μM MeJA sprayed on leaves of 15-month-old ginseng everyday for 5 days, samples on 6th day; normalized to tubulin
# Description: as §6, §7, §8
# [7] = test system: PgPPTS (protopanaxatriol synthase); assay: Quantitative RT-PCR of PgPPTS expression in ginseng leaves sprayed with MeJA; format: in vivo, Panax ginseng; conditions: 200 μM MeJA sprayed on leaves of 15-month-old ginseng everyday for 5 days, samples on 6th day; normalized to tubulin
# Description: as §6, §7, §8
Structure (SMILES),conversion of the ginsenoside by PgUGT74A1 (HPLC analysis) (PgUGT74A1 [1]),conversion of the ginsenoside by PgUGT74A1 (TLC analysis) (PgUGT74A1 [1]),conversion of the ginsenoside by PgUGT74A1 and PgUGT94B1 together (HPLC analysis) (PgUGT74A1 and PgUGT94B1),conversion of the ginsenoside by PgUGT94B1 (HPLC analysis) (PgUGT94B1 [2]),conversion of the ginsenoside by PgUGT94B1 (TLC analysis) (PgUGT94B1 [2]),also measured
"CC(C)=CCCC(C)(O)[C@H]1CC[C@]2(C)[C@@H]1[C@H](O)C[C@@H]1[C@@]3(C)CC[C@H](O)C(C)(C)[C@@H]3CC[C@]12C (stereo in doubt) [PPD, Protopanaxadiol]",converted PPD and C-K into ginsenoside Rh2 and F2 respectively,converted PPD and C-K into ginsenoside Rh2 and ginsenoside F2 respectively,successfully converted into Rg3,did not convert PPD and C-K into other ginsenosides,–,–
"CC(C)=CCC[C@](C)(O[C@@H]1O[C@H](CO)[C@@H](O)[C@H](O)[C@H]1O)[C@H]1CC[C@]2(C)[C@@H]1[C@H](O)C[C@@H]1[C@@]3(C)CC[C@H](O)C(C)(C)[C@@H]3CC[C@]12C [C-K, Compound K]",converted PPD and C-K into ginsenoside Rh2 and F2 respectively,converted PPD and C-K into ginsenoside Rh2 and ginsenoside F2 respectively,successfully converted into Rd,did not convert PPD and C-K into other ginsenosides,–,–
"CC/C=C\C[C@H]1C(=O)CC[C@@H]1CC(=O)OC [MeJA, Methyl(1R,2R)-3-Oxo-2-(2Z)-2-pentenyl-cyclopentaneacetate]",–,–,–,–,–,expression level of PgUGT94B1 after MeJA treatment (PgUGT94B1 [3]): higher expression level; expression of PgPPDS after MeJA treatment [4]: enhanced the expression; increase of the concentration of PPD-type ginsenoside Rb1 by MeJA treatment (ginseng): 1.14 times; increase of the concentration of PPD-type ginsenoside Rd by MeJA treatment (ginseng): 1.55 times; increase of the concentration of PPT-type ginsenoside Re by MeJA treatment (ginseng): 1.45 times; increase of the concentration of PPT-type ginsenoside Rg1 by MeJA treatment (ginseng): 2.61 times; expression of PgDS after MeJA treatment [5]: enhanced the expression; expression level of PgUGT74A1 after MeJA treatment (PgUGT74A1 [6]): higher expression level; expression of PgPPTS after MeJA treatment [7]: not induced
CC(C)=CCC[C@](C)(O[C@@H]1O[C@H](CO)[C@@H](O)[C@H](O)[C@H]1O)[C@H]1CC[C@]2(C)[C@@H]1[C@H](O)C[C@@H]1[C@@]3(C)CC[C@H](O[C@@H]4O[C@H](CO)[C@@H](O)[C@H](O)[C@H]4O)C(C)(C)[C@@H]3CC[C@]12C [ginsenoside F2],did not convert ginsenoside Rh2 and F2,–,–,converted ginsenoside Rh2 and F2 into ginsenoside Rg3 and Rd respectively,converted ginsenoside Rh2 and ginsenoside F2 into ginsenoside Rg3 and ginsenoside Rd respectively,–
CC(C)=CCC[C@](C)(O)[C@H]1CC[C@]2(C)[C@@H]1[C@H](O)C[C@@H]1[C@@]3(C)CC[C@H](O[C@@H]4O[C@H](CO)[C@@H](O)[C@H](O)[C@H]4O)C(C)(C)[C@@H]3CC[C@]12C [ginsenoside Rh2],did not convert ginsenoside Rh2 and F2,–,–,converted ginsenoside Rh2 and F2 into ginsenoside Rg3 and Rd respectively,converted ginsenoside Rh2 and ginsenoside F2 into ginsenoside Rg3 and ginsenoside Rd respectively,–
